{
  "source": "paper PMC7549214",
  "about": "(Malaria Journal, 2020)",
  "key": {"[1]": {"system": "cytochrome P450 (CYP) isoforms (any of those tested)", "test": "CYP inhibition, isoforms tested (summary)", "assay_type": "in vitro ADME", "conditions": "any of the CYP isoforms tested"}, "in vitro": {"test": "in vitro", "assay_type": "in vitro ADME", "conditions": "human, plasma"}},
  "data": [
    {"smiles": "O=C(NO)c1ccc(Cn2cc(-c3ccc(CN4CCCC4)cc3)nn2)cc1", "note": "[FNDR-20123]", "values": [
      {"measurement": "IC50", "setting": "[1]", "value": "> 25", "unit": "µM"},
      {"measurement": "remaining at 4 h", "setting": "in vitro", "value": 98.9, "unit": "%"}
    ]}
  ]
}
